# Reference: US20070004660A1, “Synergistic Modulation of Flt3 Kinase Using Alkylquinolines and Alkylquinazolines” (priority 2005, published 2007)
# Tests used:
# [1] = biological target: T1, isolated kinase domain of the human FLT3 receptor (a.a. 571-993) (Homo sapiens, UniProt P36888); test: FLT3 fluorescence polarization kinase assay; format: biochemical; conditions: 150 uM ATP; uncertainty ±10%
# T1 construct: human FLT3 receptor (a.a. 571-993)
# T1 sequence (P36888 571-993): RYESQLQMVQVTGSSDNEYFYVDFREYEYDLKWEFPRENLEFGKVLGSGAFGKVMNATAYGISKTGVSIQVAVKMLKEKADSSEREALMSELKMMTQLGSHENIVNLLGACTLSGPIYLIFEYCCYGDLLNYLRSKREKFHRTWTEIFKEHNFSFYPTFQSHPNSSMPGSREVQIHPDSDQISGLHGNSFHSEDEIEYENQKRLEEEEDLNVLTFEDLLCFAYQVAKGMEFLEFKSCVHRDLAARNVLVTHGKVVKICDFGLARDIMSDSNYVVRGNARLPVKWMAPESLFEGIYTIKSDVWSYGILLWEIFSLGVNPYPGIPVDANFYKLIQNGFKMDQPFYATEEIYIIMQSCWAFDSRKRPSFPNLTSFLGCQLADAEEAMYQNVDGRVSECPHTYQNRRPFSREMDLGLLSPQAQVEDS
# [2] = tested on: MV4-11 cells; test: Annexin V staining (apoptosis) of MV4-11 cells; format: cell-based, human; conditions: Tipifarnib and FLT3 inhibitor Compound A, fixed ratio 4:1, 48 hours
# Protocol: After the compound incubations, treated cells were harvested and stained with Annexin V-PE and 7-AAD using the Guava Nexin apoptosis kit according to the protocol in the Biological Activity Measurements section hereafter. Annexin V staining peaks at 60% because cells late in apoptosis begin to fall apart and are considered debris. […] Statistical analysis using the above described method of Chou and Talalay was also performed to determine the synergy of the combination. FIG. 11b depictes the isobolar analysis of the Tipifarnib and FLT3 inhibitor Compound A combination in inducing annexin V staining. […] The magnitude of the synergistic induction of apoptosis of MV4-11 cells by the combination of an FTI and a FLT3 inhibitor could not be predicted by those skilled in the art. […]
# Annexin V Staining. To examine the apoptosis of the leukemic MV4-11 cell line, cells were treated with Tipifarnib and/or FLT3 inhibitor Compound A, and Annexin V binding to phosphotidylserine on the outer leaflet of the plasma membrane of apoptotic cells was monitored using the GuavaNexin assay reagent and the Guava personal flow cytometry system (Guava Technologies; Hayward, Calif.). […] All annexin positive cells were considered apoptotic and percent Annexin positive cells was calculated.
SMILES,IC50 [1] [nM],shift of EC50 for induction of annexin V staining by the combination [2]
"COc1cc2c(C3CCN(C(=O)Nc4ccc(N5CCOCC5)cc4)CC3)ncnc2cc1OCCCN1CCN(C)CC1 [Compound 207, 4-{6-Methoxy-7-[3-(4-methyl-piperazin-1-yl)-propoxy]-quinazolin-4-yl}-piperidine-1-carboxylic acid (4-morpholin-4-yl-phenyl)-amide]",29,–
"COc1cc2c(C3CCN(C(=O)Nc4ccc(N5CCCC5)cc4)CC3)ncnc2cc1OCCN1CCCC1=O [Compound 209, 4-{6-Methoxy-7-[2-(2-oxo-pyrrolidin-1-yl)-ethoxy]-quinazolin-4-yl}-piperidine-1-carboxylic acid (4-pyrrolidin-1-yl-phenyl)-amide]",17,–
"O=C(Nc1ccc(N2CCCC2)cc1)N1CCC(c2ncnc3cc(N4CCOCC4)c(F)cc23)CC1 [Compound 210, 4-(6-Fluoro-7-morpholin-4-yl-quinazolin-4-yl)-piperidine-1-carboxylic acid (4-pyrrolidin-1-yl-phenyl)-amide]",21,–
"O=C1CCCN1CCOc1cc2ncnc(C3CCN(C(=O)Nc4ccc(N5CCCC5)cc4)CC3)c2cc1F [Compound 206, 4-{6-Fluoro-7-[2-(2-oxo-pyrrolidin-1-yl)-ethoxy]-quinazolin-4-yl}-piperidine-1-carboxylic acid (4-pyrrolidin-1-yl-phenyl)-amide]",28,–
"COc1cc2ncnc(C3CCN(C(=O)Cc4ccc(C(C)C)cc4)CC3)c2cc1OC [Example 28, 1-[4-(6,7-Dimethoxy-quinazolin-4-yl)-piperidin-1-yl]-2-(4-isopropyl-phenyl)-ethanone]",8,–
"COc1cc2ncnc(C3CCN(C(=O)Nc4ccc(N(C)C)cc4)CC3)c2cc1OC [Example 26, 4-(6,7-Dimethoxy-quinazolin-4-yl)-piperidine-1-carboxylic acid (4-dimethylamino-phenyl)-amide]",200,–
"COc1cc2c(C3CCN(C(=O)Nc4ccc(N5CCOCC5)cc4)CC3)ncnc2cc1N1CCOCC1 [Compound 212, 4-(6-Methoxy-7-morpholin-4-yl-quinazolin-4-yl)-piperidine-1-carboxylic acid (4-morpholin-4-yl-phenyl)-amide]",239,–
"Cn1cncc1C(N)(c1ccc(Cl)cc1)c1ccc2c(c1)c(-c1cccc(Cl)c1)cc(=O)n2C (single isomer, unassigned; (+)) [Tipifarnib, (+)-6-[amino(4-chlorophenyl)(1-methyl-1H-imidazol-5-yl)methyl]-4-(3-chlorophenyl)-1-methyl-2(1H)-quinolinone]",–,more than eight-fold
"CC(C)Oc1ccc(NC(=O)N2CCC(c3ncnc4cc(Cl)ccc34)CC2)cc1 [Example 29, 4-(7-Chloro-quinazolin-4-yl)-piperidine-1-carboxylic acid (4-isopropoxy-phenyl)-amide]",150,–
"COc1cc2c(C3CCN(C(=O)Nc4ccc(N5CCCC5)cc4)CC3)ncnc2cc1N1CCOCC1 [Compound 211, 4-(6-Methoxy-7-morpholin-4-yl-quinazolin-4-yl)-piperidine-1-carboxylic acid (4-pyrrolidin-1-yl-phenyl)-amide]",8,–
"COc1cc2ncnc(C3CCN(C(=O)Nc4ccc(I)cc4)CC3)c2cc1OC [Example 2, 4-(6,7-Dimethoxy-quinazolin-4-yl)-piperidine-1-carboxylic acid (4-iodo-phenyl)-amide]",210,–
"COc1cc2ncnc(C3CCN(C(=O)Nc4ccc(NC(C)=O)cc4)CC3)c2cc1OC [Example 25, 4-(6,7-Dimethoxy-quinazolin-4-yl)-piperidine-1-carboxylic acid (4-acetylamino-phenyl)-amide]",6100,–
"COc1cc2ncnc(C3CCN(C(=O)Nc4ccc(-n5ccnc5)cc4)CC3)c2cc1OC [Example 3, 4-(6,7-Dimethoxy-quinazolin-4-yl)-piperidine-1-carboxylic acid (4-imidazol-1-yl-phenyl)-amide]",3900,–

# More lines, main results first:
IC50 [1] [nM],SMILES,shift of EC50 for induction of annexin V staining by the combination [2]
6,CC(C)Oc1ccc(NC(=O)N2CCC(c3ncnc4cc(OCCCN5CCOCC5)ccc34)CC2)cc1 [Example 38],–
15,CC(C)Oc1ccc(NC(=O)N2CCC(c3ncnc4cc(OCCCN5CCN(C)CC5)ccc34)CC2)cc1 [Example 39],–
49,"CC(C)Oc1ccc(NC(=O)N2CCC(c3ncnc4cc(OCCN5CCCCC5)ccc34)CC2)cc1 [Example 34, 4-(7-(2-Piperindin-1-yl-ethoxy)-quinazolin-4-yl)-piperidine-1-carboxylic acid (4-isopropoxy-phenyl)-amide]",–
7,CC(C)Oc1ccc(NC(=O)N2CCC(c3ncnc4cc(OCCN5CCOCC5)ccc34)CC2)cc1 [Example 37],–
910,"COCCOc1ccc(NC(=O)N2CCC(c3ncnc4cc(OC)c(OC)cc34)CC2)cc1 [Example 40, 4-(6,7-Dimethoxy-quinazolin-4-yl)-piperidine-1-carboxylic acid [4-(2-methoxy-ethoxy)-phenyl]-amide]",–
47,"CCN(CC)CCOc1ccc2c(C3CCN(C(=O)Nc4ccc(OC(C)C)cc4)CC3)ncnc2c1 [Example 35, 4-[7-(2-Diethylamino-ethoxy)-quinazolin-4-yl)-piperidine-1-carboxylic acid (4-isopropoxy-phenyl)-amide]",–
35,"CC(C)c1ccc(NC(=O)N2CCC(c3ncnc4cc(Cl)ccc34)CC2)cc1 [Example 30, 4-(7-Chloro-quinazolin-4-yl)-piperidine-1-carboxylic acid (4-isopropyl-phenyl)-amide]",–
11,"COc1ccc2c(C3CCN(C(=O)Nc4ccc(C(C)C)cc4)CC3)ncnc2c1 [Example 32, 4-(7-Methoxy-quinazolin-4-yl)-piperidine-1-carboxylic acid (4-isopropyl-phenyl)-amide]",–
18,"CCN(CC)CCCOc1ccc2c(C3CCN(C(=O)Nc4ccc(OC(C)C)cc4)CC3)ncnc2c1 [Example 36, 4-[7-(3-Diethylamino-propoxy)-quinazolin-4-yl)-piperidine-1-carboxylic acid (4-isopropoxy-phenyl)-amide]",–
21,"COc1ccc2c(C3CCN(C(=O)Nc4ccc(OC(C)C)cc4)CC3)ncnc2c1 [Example 31, 4-(7-Methoxy-quinazolin-4-yl)-piperidine-1-carboxylic acid (4-isopropoxy-phenyl)-amide]",–
11,"CC(C)Oc1ccc(NC(=O)N2CCC(c3ncnc4cc(OCCCN5CCCCC5)ccc34)CC2)cc1 [Example 33, 4-(7-(3-Piperidin-1-yl-propoxy)-quinazolin-4-yl)-piperidine-1-carboxylic acid (4-isopropoxy-phenyl)-amide]",–
